IC50 data for 51 molecules are collected here from BindingDB's records for doi:10.7270/Q2MP51PC (Pcmd, 2008).

This assay deals with T1, Complement C1s subcomponent (Homo sapiens, UniProt P09871).
T1 sequence (P09871 whole entry): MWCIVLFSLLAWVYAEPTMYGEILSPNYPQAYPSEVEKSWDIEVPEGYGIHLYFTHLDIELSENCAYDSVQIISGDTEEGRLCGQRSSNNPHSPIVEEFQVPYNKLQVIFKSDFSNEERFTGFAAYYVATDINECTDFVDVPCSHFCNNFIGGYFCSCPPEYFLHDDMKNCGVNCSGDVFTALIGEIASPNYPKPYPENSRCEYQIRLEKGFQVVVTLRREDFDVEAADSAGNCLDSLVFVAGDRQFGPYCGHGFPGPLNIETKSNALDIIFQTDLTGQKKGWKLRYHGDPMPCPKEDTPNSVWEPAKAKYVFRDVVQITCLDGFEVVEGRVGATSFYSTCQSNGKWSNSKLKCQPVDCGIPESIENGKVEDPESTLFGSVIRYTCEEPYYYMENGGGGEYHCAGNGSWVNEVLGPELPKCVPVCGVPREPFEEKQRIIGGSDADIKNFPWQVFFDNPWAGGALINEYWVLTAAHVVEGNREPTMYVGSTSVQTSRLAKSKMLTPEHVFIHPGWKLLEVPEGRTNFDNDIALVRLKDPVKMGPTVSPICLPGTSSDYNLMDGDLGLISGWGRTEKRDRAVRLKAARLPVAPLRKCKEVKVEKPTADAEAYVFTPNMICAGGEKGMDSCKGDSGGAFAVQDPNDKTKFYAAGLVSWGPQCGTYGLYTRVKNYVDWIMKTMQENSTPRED
In words: C1s inhibitor IC50 values, dose response, biochemical (AID 787).
In turn, `Cc1csc(NC(=O)c2ccco2)n1` [MLS000108918] yielded an IC50 greater than 50 µM.

`COc1cccc(N2C(=O)N(c3ccccc3Cl)C3CS(=O)(=O)CC32)c1` (stereo unspecified) [1-(2-chlorophenyl)-3-(3-methoxyphenyl)tetrahydro-1H-thieno[3,4-d]imidazol-2(3H)-one 5,5-dioxide] displayed an IC50 greater than 50 µM.

`COc1cccc(C2=Nc3nnnn3C(c3cccc(OC)c3OC)C2)c1` (stereo unspecified): the IC50 was greater than 50 µM.

With `Cn1c(=O)c2[nH]c(NCC3CCCO3)nc2n(-c2ccccc2)c1=O` (stereo unspecified) [1-methyl-8-(2-oxolanylmethylamino)-3-phenyl-7H-purine-2,6-dione], the IC50 was greater than 50 µM.

`COc1ccc(C(=O)n2nc(-c3ccco3)nc2SC)cc1OC` [(3,4-dimethoxyphenyl)-[3-(2-furanyl)-5-(methylthio)-1,2,4-triazol-1-yl]methanone] had an IC50 of 2.37 µM.

Regarding `Cc1ccc(Cn2ncc3c(N4CCN(c5ccccc5C)CC4)ncnc32)cc1` [1-(4-methylbenzyl)-4-[4-(2-methylphenyl)-1-piperazinyl]-1H-pyrazolo[3,4-d]pyrimidine], the IC50 was greater than 50 µM.

Molecule `COc1cc(OC)cc(C(=O)Nc2ncc3c(n2)CC(C)CC3=O)c1` (stereo unspecified) [3,5-dimethoxy-N-(7-methyl-5-oxidanylidene-7,8-dihydro-6H-quinazolin-2-yl)benzamide] displayed a half-inhibitory concentration (IC50) greater than 50 µM.

`CCOc1ccc(-n2c(O)cc(N3CCN(c4ccccc4F)CC3)c2O)cc1` [1-(4-ethoxyphenyl)-3-[4-(2-fluorophenyl)-1-piperazinyl]-2,5-pyrrolidinedione] showed an IC50 greater than 50 µM.

In the case of `COc1cc(C)nc(NS(=O)(=O)c2ccccc2)n1` [MLS000100375], the IC50 was greater than 50 µM.

As for `CC(C)NS(=O)(=O)c1cc(C(=O)O)ccc1Cl` [4-chloranyl-3-(propan-2-ylsulfamoyl)benzoic acid], the IC50 is greater than 50 µM.

Molecule `O=C1CS/C(=N\c2ccc(O)cc2)N1c1ccc(O)cc1` [MLS000027731] registered a half-maximal inhibitory concentration (IC50) greater than 50 µM.

In turn, `CCOc1ccc2[nH]c3c(N4CCN(c5ccccn5)CC4)ncnc3c2c1` [SMR000044529] had an IC50 greater than 50 µM.

The molecule `Cc1csc(NC(=O)c2cccc(S(=O)(=O)N3CCCCC3)c2)n1` [MLS000058185] yielded an IC50 greater than 50 µM.

Molecule `CCOc1ccc(C2CC(c3cccc(Cl)c3)n3nc(N)nc3N2)cc1` (stereo unspecified) [7-(3-chlorophenyl)-5-(4-ethoxyphenyl)-1,5,6,7-tetrahydro-[1,2,4]triazolo[1,5-a]pyrimidin-2-amine] displayed an IC50 greater than 50 µM.

In the case of `CC(C)(C)NC(=O)C(c1ccco1)N(Cc1ccc2c(c1)OCO2)C(=O)Cn1nnc2ccccc21` (stereo unspecified) [2-[1,3-benzodioxol-5-ylmethyl-[2-(1-benzotriazolyl)-1-oxoethyl]amino]-N-tert-butyl-2-(2-furanyl)acetamide], the IC50 is greater than 50 µM.

In the case of `CSc1nc(-c2ccco2)nn1C(=O)c1cccs1` [[3-(furan-2-yl)-5-methylsulfanyl-1,2,4-triazol-1-yl]-thiophen-2-ylmethanone], the half-inhibitory concentration (IC50) worked out at 0.88 µM.

For the molecule `CCOC(=O)N1CCN(C(=O)CN(c2cccc(C)c2)S(=O)(=O)c2ccc(C)cc2)CC1` [4-[2-(3-methyl-N-(4-methylphenyl)sulfonylanilino)-1-oxoethyl]-1-piperazinecarboxylic acid ethyl ester], the IC50 was greater than 50 µM.

Molecule `COc1ccc(NC(=O)CSC2CCCCC2)cc1` [2-(cyclohexylthio)-N-(4-methoxyphenyl)acetamide] registered an IC50 greater than 50 µM.

`O=c1oc(-c2ccco2)nc2ccccc12` [2-Furan-2-yl-benzo[d][1,3]oxazin-4-one] yielded an IC50 of 4.62 µM.

On to `O=C(Nc1ccc2oc(=O)ccc2c1)c1cccnc1` [MLS000075075], for which the half-maximal inhibitory concentration (IC50) is greater than 50 µM.

`COc1ccc2c(c1)CCc1c(C(=O)NCc3ccc(F)cc3)noc1-2` [MLS000116425]: the IC50 is greater than 50 µM.

Molecule `O=C(O)[C@@H](c1ccccc1)N1Cc2ccccc2C1=O` registered an IC50 greater than 50 µM.

`CCOC(=O)Cc1nnc(NC(=O)C(CC)Sc2nnc3c4ccccc4n(C)c3n2)s1` (stereo unspecified) [2-[5-[2-[(5-methyl-[1,2,4]triazin[5,6-b]indol-3-yl)thio]butanoylamino]-1,3,4-thiadiazol-2-yl]acetic acid ethyl ester] showed an IC50 greater than 50 µM.

`COCCCNC(CC(=O)Nc1ccccc1C(=O)OC)C(=O)O` (stereo unspecified) [4-(2-carbomethoxyanilino)-4-keto-2-(3-methoxypropylamino)butyric acid] registered an IC50 greater than 50 µM.

For the molecule `Cc1ccc(CCN2C(=O)CCC2(C)C(=O)NC2CCCC2)cc1` (stereo unspecified) [MLS000120119], the IC50 was greater than 50 µM.

For `Cc1nc(C)c(C(=O)Nc2cccc(C)c2C)o1` [MLS000118537], the IC50 is greater than 50 µM.

In the case of `CCN1CCN(C=Nc2nc3c(s2)CCCC3)CC1` [(4-ethylpiperazino)methylene-(4,5,6,7-tetrahydro-1,3-benzothiazol-2-yl)amine], the IC50 was greater than 50 µM.

`CC(=O)c1cn(CC(=O)NCc2ccc3c(c2)OCO3)c2ccccc12` [2-(3-acetyl-1-indolyl)-N-(1,3-benzodioxol-5-ylmethyl)acetamide] showed an IC50 greater than 50 µM.

For `C#CCOC(=O)c1ccccc1C(=O)n1nnc2ccccc21`, the IC50 came out at 4.26 µM.

As to `O=C(O)COCc1nc2ccccc2[nH]1`, the IC50 was greater than 50 µM.

In the case of `CCOC(=O)COc1nc(OC)nc(N2CCOCC2)n1` [2-[(4-methoxy-6-morpholino-s-triazin-2-yl)oxy]acetic acid ethyl ester], the IC50 is greater than 50 µM.

Take `COc1ccc(CNC(=O)c2cc(-c3ccc(OC)c(OC)c3)on2)cc1` [5-(3,4-dimethoxyphenyl)-N-(4-methoxybenzyl)isoxazole-3-carboxamide]: the IC50 was greater than 50 µM.

Molecule `CCCC(=O)n1nc(-c2ccco2)nc1SCc1ccccc1` [1-[3-(2-furanyl)-5-(phenylmethylthio)-1,2,4-triazol-1-yl]-1-butanone] came in with a half-inhibitory concentration (IC50) greater than 50 µM.

For `Nc1nc(C(=O)N2CCOCC2)nn1C(=O)c1ccc(Cl)cc1` [(5-azanyl-3-morpholin-4-ylcarbonyl-1,2,4-triazol-1-yl)-(4-chlorophenyl)methanone], 12.1 µM corresponded to half-maximal inhibition (IC50).

Consider `Cc1nc(CNS(=O)(=O)c2cc(C)c(C)cc2C)cs1` [2,4,5-trimethyl-N-[(2-methyl-1,3-thiazol-4-yl)methyl]benzenesulfonamide], for which the 50% inhibitory concentration (IC50) was greater than 50 µM.

Take `Cc1cc(NS(=O)(=O)c2ccc(NC(=O)COc3ccccc3C(C)C)cc2)no1` [2-(2-isopropylphenoxy)-N-[4-[(5-methylisoxazol-3-yl)sulfamoyl]phenyl]acetamide]: the IC50 is greater than 50 µM.

`CC(=O)Nc1ccc(NC(C)=O)s1` [MLS000105054]: the IC50 was greater than 50 µM.

Regarding `COC(=O)c1ccccc1NC(=O)c1cc(-c2ccc(OC)c(OC)c2)on1` [2-[[5-(3,4-dimethoxyphenyl)isoxazole-3-carbonyl]amino]benzoic acid methyl ester], the 50% inhibitory concentration (IC50) is greater than 50 µM.

As to `COc1ccc(Cl)cc1NC(=O)CCN1CCN(c2ccccc2C)CC1` [MLS000075926], the IC50 is greater than 50 µM.

For `CCCc1nc2ccccc2c(=O)n1-c1c(C)n(C)n(-c2ccccc2)c1=O` [3-(1,5-dimethyl-3-oxo-2-phenyl-4-pyrazolyl)-2-propyl-4-quinazolinone], the IC50 was greater than 50 µM.

In turn, `COc1cc(C(Nc2ccccn2)c2ccc3ccc(C)nc3c2O)cc(OC)c1O` (stereo unspecified) [7-[(3,5-dimethoxy-4-oxidanyl-phenyl)-(pyridin-2-ylamino)methyl]-2-methyl-quinolin-8-ol] displayed an IC50 greater than 50 µM.

`COc1ccc(S(=O)(=O)N2CCOCC2)cc1C(=O)Nc1nc2ccccc2s1` [MLS000088961] yielded an IC50 greater than 50 µM.

Molecule `CSc1nc(-c2ccco2)nn1C(=O)c1ccco1` [2-furanyl-[3-(2-furanyl)-5-(methylthio)-1,2,4-triazol-1-yl]methanone] came in with an IC50 of 4.88 µM.

As to `O=C(NCc1cccs1)c1cccc(S(=O)(=O)N2CCCCC2)c1` [3-(1-piperidinylsulfonyl)-N-(thiophen-2-ylmethyl)benzamide], the IC50 was greater than 50 µM.

In the case of `CCCCn1c(=O)cc(N2CCOCC2)[nH]c1=O` [SMR000018178], the IC50 was greater than 50 µM.

In the case of `O=C(Cn1c(=O)oc2cc(S(=O)(=O)N3CCc4ccccc43)ccc21)N1CCCCC1` [6-(2,3-dihydroindol-1-ylsulfonyl)-3-(2-oxidanylidene-2-piperidin-1-yl-ethyl)-1,3-benzoxazol-2-one], the 50% inhibitory concentration (IC50) was greater than 50 µM.

The molecule `Cc1cc(NC(=O)c2cccc(S(=O)(=O)N3CCCCCC3)c2)n(-c2ccccn2)n1` [3-(1-azepanylsulfonyl)-N-[5-methyl-2-(2-pyridinyl)-3-pyrazolyl]benzamide] had an IC50 greater than 50 µM.

`O=C(O)CCCC(=O)Nc1ccccc1C(=O)O` [2-(4-carboxybutanoylamino)benzoic acid]: the IC50 is greater than 50 µM.

`Cc1ccccc1S(=O)(=O)Cc1ccc(C(=O)NCc2cccnc2)o1` [5-(o-tolylsulfonylmethyl)-N-(3-pyridylmethyl)-2-furamide] displayed an IC50 greater than 50 µM.

On to `COc1ccc(Nc2cc(C)nc3nc(C)nn23)c(OC)c1` [(2,4-dimethoxyphenyl)-(2,5-dimethyl-[1,2,4]triazolo[1,5-a]pyrimidin-7-yl)amine], for which the IC50 is greater than 50 µM.

Turning to `COc1cc(NC(=O)c2cccs2)c(OC)cc1NC(=O)CCn1nnc2ccccc21` [MLS000027885], the 50% inhibitory concentration (IC50) is greater than 50 µM.
